Values of other authors, collected in US8871463B2, “Method for screening a glutamate release inhibitor in an astrocyte” (Korea Institute of Science and Technology, priority 2012, dated 2014).

Biological target: T1, Best1 channel (Mus musculus, UniProt O88870)
T1 sequence (O88870 1-551): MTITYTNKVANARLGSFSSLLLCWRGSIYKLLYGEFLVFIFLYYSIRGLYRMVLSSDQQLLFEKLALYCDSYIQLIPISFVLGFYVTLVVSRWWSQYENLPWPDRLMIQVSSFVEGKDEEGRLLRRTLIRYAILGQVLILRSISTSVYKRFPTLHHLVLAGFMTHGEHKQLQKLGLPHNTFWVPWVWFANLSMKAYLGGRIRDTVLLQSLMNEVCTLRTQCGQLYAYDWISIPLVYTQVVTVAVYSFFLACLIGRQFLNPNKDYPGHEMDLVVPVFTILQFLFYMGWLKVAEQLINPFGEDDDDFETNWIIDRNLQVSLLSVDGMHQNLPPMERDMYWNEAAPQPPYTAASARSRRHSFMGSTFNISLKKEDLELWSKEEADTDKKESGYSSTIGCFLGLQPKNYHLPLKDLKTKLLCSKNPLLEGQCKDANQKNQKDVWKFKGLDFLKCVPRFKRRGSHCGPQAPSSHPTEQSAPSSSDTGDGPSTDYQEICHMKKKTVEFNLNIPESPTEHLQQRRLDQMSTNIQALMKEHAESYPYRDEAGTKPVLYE
Settings: intracellular Ca2+; read-out: EC50 of activation of Best1 channel; cited from earlier work

For [Ca+2] [Ca^2+], the EC50 is listed as 150 nM.
